# Columns and labels:
# [1] = Mouse pharmacokinetics after oral gavage, plasma drug concentration by LC-MS/MS (C57BL/6); format: in vivo, C57bl/6 mice; details: for Cmax / AUC(0-t): mouse, plasma; for AUC(0-t): read-out: AUC0-24
# Method: (§1) Compounds were formulated in 5% DMSO/5% Tween20 in H2O, sonicated, vortexed, and put on stir plate overnight at a dose volume of 10 mL/kg. Balb/C (Jackson laboratories) or C57bl/6 (Taconic Biosciences) mice (8-9 weeks old) were acclimated to the colony for 3 days prior to dosing. Water and food were provided ab libitum. Compounds were administered by oral gavage. Groups of six animals received 3 to 4 bleeds per day with one terminal bleed. The time points were 30 min, 1 h, 2 h, 4 h, 6 h, 8 h, 24 h. Plasma was collected via centrifugation and analyzed for drug concentrations.
# (§2) Preparation of Study Samples and Standards for Analysis by LC-MS/MS
# (§3) 50 μl of plasma was aliquoted into a 96 well deep-well polypropylene plate (2 mL) to which 5 μL of DMSO was added. For standards, 5 μl of test compound in DMSO at […] the standard concentration was added to 50 μl of blank matrix in a 96 well deep-well polypropylene plate. For example, for a 300 nM standard, the 10× DMSO concentration was 3 μM. Study samples that require dilution are diluted with the appropriate blank matrix. For example, for a 10× dilution, 5 μL of study sample is added to 45 μl of blank matrix. Protein was precipitated from study samples and standards with the addition of 150 μl of acetonitrile. After a clean plate map was placed firmly over the top of the 96-well plate, a bench top shaker was used for 1 min to ensure complete precipitation of protein. The precipitated protein was pelleted by centrifuging for 3,000 rpm for 10 min at 20° C. and then the clear supernatant was transferred to a clean 96-well plate and spun again under the same conditions in order to pellet any solid material that may have been transferred.
# (§4) Analysis of Study Samples and Standards with LCMS with MRM Detection
# (§5) An Agilent 1200 HPLC with binary pump and a Leap CTC with fast wash autosampler were used to introduce samples to the mass spectrometer.
# (§6) The column used was a Phenomenex Luna C8 30×2 mm 5 μm with a security guard. Mass detection was performed by an Applied Biosystems 4000 Qtrap in MRM mode and ionization was achieved by positive electrospray with a source temperature of 500° C. The ion transitions, […] potential and collision energies were dependent on the specific analyte.
# (§7) Prepared samples were usually analyzed in reverse chronological order with bracketing standard curves. Typically at least 6 standards were used for quantification with a percent accuracy of +/−15% for all standards except at the LLOQ where a percent accuracy of +/−20% was allowed. The concentration time profile was fit using a one compartment model for the applicable mode of dosing using Phoenix WinNonLin 6.4.
# [2] = Mouse pharmacokinetics after oral gavage, plasma drug concentration by LC-MS/MS (BALB/c); format: in vivo; details: 10 mg/kg, male mice; for Cmax / AUC(0-t): mouse, plasma; for AUC(0-t): read-out: AUC0-24
# Method: as §1, §2, §3, §4, §5, §6, §7
# CXCR3 = molecular target: T1, CXCR3 (Homo sapiens, UniProt P49682); experiment: CXCR3 cAMP agonist assay (cAMP Hunter CHOK1 CXCR3 Gi cell line, forskolin-stimulated, HitHunter cAMP detection); format: cell-based; details: cAMP Hunter CHOK1 CXCR3 Gi cells, 20 μM forskolin, 30 minutes; read-out: Activity (CXCR3 cAMP agonist assay compound EC50)
# T1 construct: host or cells: CHO-K1 (cAMP Hunter CHOK1 CXCR3 Gi cell line)
# T1 sequence (P49682 1-368): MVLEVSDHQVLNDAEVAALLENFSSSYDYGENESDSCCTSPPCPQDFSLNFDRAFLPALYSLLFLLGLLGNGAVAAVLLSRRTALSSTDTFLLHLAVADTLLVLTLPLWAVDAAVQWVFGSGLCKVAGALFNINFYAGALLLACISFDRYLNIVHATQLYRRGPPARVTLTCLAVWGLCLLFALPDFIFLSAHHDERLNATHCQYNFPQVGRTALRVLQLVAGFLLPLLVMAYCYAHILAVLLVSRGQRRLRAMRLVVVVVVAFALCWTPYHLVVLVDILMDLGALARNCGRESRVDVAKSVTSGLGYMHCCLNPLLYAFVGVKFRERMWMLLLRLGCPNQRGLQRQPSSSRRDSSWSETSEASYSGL
# Summary of the method: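 Agonist activity was measured as suppression of forskolin (20 μM)-induced cAMP, read by luminescent enzyme-fragment complementation with a cAMP standard curve and CXCL11 defining full efficacy. Assay used 50,000 CXCR3 Gi CHOK1 cells/well in pH 7.4 HEPES-buffered HBSS with 0.1% BSA, compound 0-10 μM over 12 points, 30 min incubation.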
Compound,apparent oral clearance (CL/F) [2],Cmax [2] [nM],AUC(0-t) [2] [µM·h],EC50 (CXCR3) [nM],other results
N=C(N)NCCC[C@H](NC(=O)[C@@H]1Cc2ccccc2CN1C(=O)CCC(=O)c1ccccc1)C(=O)NCC1CCCCC1 [A],BQL,4,,,"AUC0-24 ([1]; C57BL/6, 10 mg/kg, male mice): BQL; apparent oral clearance (CL/F) ([1]; C57BL/6, 10 mg/kg, male mice): BQL; Cmax ([1]; C57BL/6, 10 mg/kg, male mice): 2 nM; AUC0-24 [2]: BLQ"
NCCCC[C@H](NC(=O)[C@@H]1Cc2ccccc2CN1C(=O)CCC(=O)c1ccccc1)C(=O)NCC(c1ccccc1)c1ccccc1 [B],BQL,7,,,"apparent oral clearance (CL/F) ([1]; C57BL/6, 10 mg/kg, male mice): 9000 mL/min/kg; Cmax ([1]; C57BL/6, 10 mg/kg, male mice): 30 nM; AUC(0-t) ([1]; C57BL/6, 10 mg/kg, male mice): 0.029 µM·h; AUC0-24 [2]: BLQ"
NCCCC[C@H](NC(=O)[C@@H]1Cc2ccccc2CN1C(=O)CCC(=O)c1ccccc1)C(=O)Nc1ccc(Cl)c(F)c1 [Compound 1-20],527 mL/min/kg,230,0.53,50 to 250,
Cc1c(NC(=O)[C@H](CCCCN)NC(=O)[C@@H]2Cc3ccccc3CN2C(=O)CCC(=O)c2ccccc2)ccc(Cl)c1Cl [Compound 1-25],782 mL/min/kg,70,0.34,< 50,
NCCCC[C@H](NC(=O)[C@@H]1Cc2ccccc2CN1C(=O)CCC(=O)c1ccccc1)C(=O)Nc1ccc(F)c(C(F)(F)F)c1 [Compound 1-26],,3,0.006,< 50,
"NCC[C@H](NC(=O)[C@@H]1Cc2ccccc2CN1C(=O)CCC(=O)c1ccccc1)C(=O)Nc1ccc(Cl)c(Cl)c1 [Compound 2-1, (S)—N—((S)-4-amino-1-((3,4-dichlorophenyl)amino)-1-oxobutan-2-yl)-2-(4-oxo-4-phenylbutanoyl)-1,2,3,4-tetrahydroisoquinoline-3-carboxamide]",66 mL/min/kg,1800,4.3,50 to 250,
Cc1cc(NC(=O)[C@H](CCN)NC(=O)[C@@H]2Cc3ccccc3CN2C(=O)CCC(=O)c2ccccc2)ccc1Cl [Compound 2-2],,3500,,< 50,"apparent oral clearance (CL/F) ([1]; C57BL/6, 10 mg/kg, male mice): 176 mL/min/kg; apparent oral clearance (CL/F) ([1]; C57BL/6, 60 mg/kg, male mice): 266 mL/min/kg; Cmax ([1]; C57BL/6, 10 mg/kg, male mice): 900 nM; AUC(0-t) ([1]; C57BL/6, 10 mg/kg, male mice): 1.7 µM·h; Cmax ([1]; C57BL/6, 60 mg/kg, male mice): 2700 nM; AUC(0-t) ([1]; C57BL/6, 60 mg/kg, male mice): 6.7 µM·h"
Cc1ccc(NC(=O)[C@H](CCN)NC(=O)[C@@H]2Cc3ccccc3CN2C(=O)CCC(=O)c2ccccc2)cc1C [Compound 2-3],403 mL/min/kg,400,0.8,< 50,
Cc1cccc(NC(=O)[C@H](CCN)NC(=O)[C@@H]2Cc3ccccc3CN2C(=O)CCC(=O)c2ccccc2)c1 [Compound 2-5],389 mL/min/kg,500,0.8,< 50,
Cc1ccc(NC(=O)[C@H](CCN)NC(=O)[C@@H]2Cc3ccccc3CN2C(=O)CCC(=O)c2ccccc2)cc1C(F)(F)F [Compound 2-7],86 mL/min/kg,1900,3.3,< 50,
Cc1cc(NC(=O)[C@H](CCN)NC(=O)[C@@H]2Cc3ccccc3CN2C(=O)CCC(=O)c2ccccc2)c(F)cc1Cl [Compound 2-18],47 mL/min/kg,2900,6.2,< 50,
Cc1cc(NC(=O)[C@H](CCN)NC(=O)[C@@H]2Cc3ccccc3CN2C(=O)CCC(=O)c2ccccc2)c(C)cc1Cl [Compound 2-19],59 mL/min/kg,1300,4.9,< 50,
Cc1cc(Cl)c(Cl)cc1NC(=O)[C@H](CCN)NC(=O)[C@@H]1Cc2ccccc2CN1C(=O)CCC(=O)c1ccccc1 [Compound 2-21],65 mL/min/kg,900,4.3,< 50,
Cc1cc(NC(=O)[C@H](CCN)NC(=O)[C@@H]2Cc3ccccc3CN2C(=O)CCC(=O)c2ccccc2)c(Cl)cc1Cl [Compound 2-22],10 mL/min/kg,4200,27,< 50,"apparent oral clearance (CL/F) ([1]; C57BL/6, 10 mg/kg, male mice): 19 mL/min/kg; Cmax ([1]; C57BL/6, 10 mg/kg, male mice): 2900 nM; AUC(0-t) ([1]; C57BL/6, 10 mg/kg, male mice): 15.1 µM·h"
NCC[C@H](NC(=O)[C@@H]1Cc2ccccc2CN1C(=O)CCC(=O)c1ccccc1)C(=O)Nc1ccc(Cl)c(Cl)c1F [Compound 2-24],23 mL/min/kg,3300,12.3,< 50,"apparent oral clearance (CL/F) ([1]; C57BL/6, 10 mg/kg, male mice): 38 mL/min/kg; apparent oral clearance (CL/F) ([1]; C57BL/6, 60 mg/kg, male mice): 58 mL/min/kg; Cmax ([1]; C57BL/6, 10 mg/kg, male mice): 1000 nM; AUC(0-t) ([1]; C57BL/6, 10 mg/kg, male mice): 7 µM·h; Cmax ([1]; C57BL/6, 60 mg/kg, male mice): 3000 nM; AUC(0-t) ([1]; C57BL/6, 60 mg/kg, male mice): 29 µM·h"
Cc1c(Cl)ccc(NC(=O)[C@H](CCN)NC(=O)[C@@H]2Cc3ccccc3CN2C(=O)CCC(=O)c2ccccc2)c1C [Compound 2-26],76 mL/min/kg,900,3.8,< 50,
Cc1cc(NC(=O)[C@H](CCCN)NC(=O)[C@@H]2Cc3ccccc3CN2C(=O)CCC(=O)c2ccccc2)ccc1Cl [Compound 4-3],4627 mL/min/kg,30,0.06,< 50,
CNCCCC[C@H](NC(=O)[C@@H]1Cc2ccccc2CN1C(=O)CCC(=O)c1ccccc1)C(=O)Nc1ccc(Cl)c(C)c1 [Compound 4-4],,20,0.03,< 50,
"Cc1cc(NC(=O)[C@H](CCN)NC(=O)[C@@H]2Cc3ccccc3CN2C(=O)CCC(=O)N2CCCCC2(C)C)c(C#N)cc1Cl [Compound 18-1, (S)—N—((S)-4-amino-1-((4-chloro-2-cyano-5-methylphenyl)amino)-1-oxobutan-2-yl)-2-(4-(2,2-dimethylpiperidin-1-yl)-4-oxobutanoyl)-1,2,3,4-tetrahydroisoquinoline-3-carboxamide]",,,,< 50,"apparent oral clearance (CL/F) ([1]; C57BL/6, 60 mg/kg, female mice): 565 mL/min/kg; Cmax ([1]; C57BL/6, 60 mg/kg, female mice): 1200 nM; AUC(0-t) ([1]; C57BL/6, 60 mg/kg, female mice): 2.9 µM·h"
"Cc1cc(NC(=O)[C@H](CC23CC(N)(C2)C3)NC(=O)[C@@H]2Cc3ccccc3CN2C(=O)CCC(=O)c2ccccc2)ccc1Cl [Compound 22-1, (S)—N—((S)-3-(3-aminobicyclo[1.1.1]pentan-1-yl)-1-((4-chloro-3-methylphenyl)amino)-1-oxopropan-2-yl)-2-(4-oxo-4-phenylbutanoyl)-1,2,3,4-tetrahydroisoquinoline-3-carboxamide]",,,,< 50,"apparent oral clearance (CL/F) ([1]; C57BL/6, 60 mg/kg, female mice): 34 mL/min/kg; Cmax ([1]; C57BL/6, 60 mg/kg, female mice): 7300 nM; AUC(0-t) ([1]; C57BL/6, 60 mg/kg, female mice): 48 µM·h"
Cc1c(Cl)cc(NC(=O)[C@H](CCN)NC(=O)[C@@H]2Cc3ccccc3CN2C(=O)CCC(=O)c2ccccc2)cc1Cl [Compound 27-3],,,,< 50,"apparent oral clearance (CL/F) ([1]; C57BL/6, 60 mg/kg, female mice): 143 mL/min/kg; Cmax ([1]; C57BL/6, 60 mg/kg, female mice): 5100 nM; AUC(0-t) ([1]; C57BL/6, 60 mg/kg, female mice): 11.7 µM·h"
NCC[C@H](NC(=O)[C@@H]1Cc2ccc(F)cc2CN1C(=O)CCC(=O)c1ccccc1)C(=O)Nc1ccc(Cl)c(Cl)c1F [Compound 27-7],,,,< 50,"apparent oral clearance (CL/F) ([1]; C57BL/6, 60 mg/kg, female mice): 92 mL/min/kg; Cmax ([1]; C57BL/6, 60 mg/kg, female mice): 4300 nM; AUC(0-t) ([1]; C57BL/6, 60 mg/kg, female mice): 17.6 µM·h"
